This is an account of results in PubChem BioAssay (NCI).

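Test compounds were applied to cells in 96-well plates for 48 hours at 5 doses. Here, GI50 denotes the concentration required for 50% inhibition of growth. Definition used: TGI = concentration required for complete inhibition of growth.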 Bounds are passed on as bounds.

Test systems include 786-0 renal; CAKI-1 renal; HCC-2998 colon; HOP-92 NSCLC; NCI-H23 lung; TK-10 renal; UO-31 renal; HL-60(TB) leukemia; RXF 393 renal; T-47D breast.
What all share (assay): growth of human tumour cells (NCI), 48 h

For `O=C1OCC2=C1C(c1cccc(C(F)(F)F)c1)c1cc3c(cc1N2CCO)OCO3` (centres undefined), the GI50 in the test with 786-0 renal was 1.19 µM; with CAKI-1 renal, 1.76 µM; in the test on HCC-2998 colon, 1.55 µM; with HOP-92 NSCLC, 2.03 µM; in the test on NCI-H23 lung it was 2.72 µM; in the test with TK-10 renal, 10.1 µM. Besides, the GI50 in the test with UO-31 renal is 2.19 µM. Moreover, the TGI in the test on 786-0 renal is above 50 µM; in the test with CAKI-1 renal, above 50 µM; in the test with HCC-2998 colon it was 17 µM; in the test on HOP-92 NSCLC it was above 50 µM; with NCI-H23 lung, above 50 µM; in the test with TK-10 renal it was above 50 µM. The TGI in the test with UO-31 renal is above 50 µM.
For the compound `O=C1NC2(CCCC2)/C(=N\O)C12CCCC2`, the TGI with 786-0 renal, with CAKI-1 renal, with HL-60(TB) leukemia, in the test with HOP-92 NSCLC, in the test with NCI-H23 lung and with RXF 393 renal was above 100 µM in each case. Further, the TGI in the test with TK-10 renal and with UO-31 renal was above 100 µM in each case.
Consider `CC1(C(=O)NCCN(CCNC(=O)C2(C)CC3(C)CC(C)(C2)C(=O)NC3=O)CCNC(=O)C2(C)CC3(C)CC(C)(C2)C(=O)NC3=O)CC2(C)CC(C)(C1)C(=O)NC2=O` (centres undefined), for which the TGI in the test with 786-0 renal, in the test with CAKI-1 renal, with HCC-2998 colon, in the test on HL-60(TB) leukemia, in the test on NCI-H23 lung and with RXF 393 renal was above 100 µM throughout. The compound further returned a TGI in the test on UO-31 renal above 100 µM.
For `Cc1cc2c(=O)cc(-c3ccc(C(F)(F)F)cc3)oc2c(C(=O)O)c1C`, the TGI with 786-0 renal, in the test on CAKI-1 renal, with NCI-H23 lung, with RXF 393 renal, in the test on TK-10 renal and in the test on UO-31 renal was above 100 µM throughout.
For `CN1C(=O)N(C)C2C1NN=c1s/c(=C\c3c[nH]c4ccccc34)c(=O)n12` (centres undefined), the GI50 with 786-0 renal was 0.125 µM; in the test with CAKI-1 renal, 0.0309 µM; with HCC-2998 colon, 0.0352 µM; in the test on HL-60(TB) leukemia, 0.0305 µM; in the test with HOP-92 NSCLC, 0.36 µM; with NCI-H23 lung, 0.0479 µM. In the test with TK-10 renal, the GI50 was 34.7 µM. Also, the TGI in the test on 786-0 renal was above 100 µM; in the test on CAKI-1 renal it was above 100 µM; with HCC-2998 colon, above 100 µM; with HL-60(TB) leukemia, 0.858 µM; in the test on HOP-92 NSCLC, above 100 µM; in the test with NCI-H23 lung, above 100 µM. This compound also gave a TGI with TK-10 renal above 100 µM.
Turning to `O=C(c1ccccn1)c1nc(-c2ccc(Cl)c(Cl)c2)nc2ccc(Cl)cc12`, the TGI is above 100 µM with 786-0 renal; above 100 µM in the test on CAKI-1 renal; above 100 µM in the test with HCC-2998 colon; above 100 µM in the test with HL-60(TB) leukemia; 87.5 µM in the test on NCI-H23 lung; 46.8 µM in the test on RXF 393 renal. In addition, the TGI in the test with TK-10 renal and in the test on UO-31 renal was above 100 µM throughout.
For the compound `Clc1ccccc1C1N2CCCCC2[C@@H]2c3[nH]c4ccccc4c3CCN12` (some centres undefined), the TGI in the test on 786-0 renal was 42.2 µM; in the test on HCC-2998 colon, 36.9 µM; in the test with HL-60(TB) leukemia, above 100 µM; in the test on HOP-92 NSCLC, above 100 µM; in the test on NCI-H23 lung it was 45.6 µM; with RXF 393 renal, 40.2 µM. The values for the TGI in the test on TK-10 renal and with UO-31 renal were 60 µM and 39 µM, respectively.
Turning to `COc1cc([N+](=O)[O-])c(S(=O)(=O)O)cc1N`, the TGI in the test with 786-0 renal, in the test with CAKI-1 renal, with HL-60(TB) leukemia, with NCI-H23 lung, with T-47D breast and with TK-10 renal was above 100 µM throughout. This compound showed a TGI in the test with UO-31 renal above 100 µM.
With `NCCn1ccc(NC(c2ccccc2)(c2ccccc2)c2ccccc2)nc1=O`, the TGI in the test on 786-0 renal was found to be 31.8 µM; in the test on HCC-2998 colon it was 31.9 µM; in the test with HL-60(TB) leukemia it was 38.5 µM; in the test on HOP-92 NSCLC, 27.4 µM; in the test on RXF 393 renal, 21.3 µM; with TK-10 renal it was 85 µM. In the test on UO-31 renal, this compound registered a TGI above 100 µM.
As for `COc1cc[c]([Sb]([Br])([CH]=C(C)C)([CH]=C(C)C)[CH]=C(C)C)cc1`, the GI50 in the test with 786-0 renal is 13.6 µM; in the test with CAKI-1 renal it was 30.7 µM; with HCC-2998 colon it was 6.53 µM; in the test with HL-60(TB) leukemia, 1.73 µM; in the test with NCI-H23 lung, 4.72 µM; with RXF 393 renal, 8.8 µM. The GI50 in the test on TK-10 renal is 18.8 µM; in the test with UO-31 renal it was 29.5 µM. The TGI with 786-0 renal was above 100 µM; with CAKI-1 renal, above 100 µM; with HCC-2998 colon, above 100 µM; in the test on HL-60(TB) leukemia it was 13.7 µM; in the test on NCI-H23 lung, 34.6 µM; in the test with RXF 393 renal, 59.1 µM. For the same compound, the TGI was above 100 µM with TK-10 renal and 73.1 µM in the test with UO-31 renal.
With `C/C=C/C(=O)[C@@H](O)C(C)C`, the TGI with 786-0 renal, with CAKI-1 renal, in the test with HCC-2998 colon, in the test with HOP-92 NSCLC, with NCI-H23 lung and with RXF 393 renal was above 100 µM in each case. For the same compound, the TGI in the test with TK-10 renal and in the test with UO-31 renal was above 100 µM in each case.
Turning to `CN(C)CCNC(=O)c1cccc2ccc(-c3cccnc3)nc12`, the TGI in the test on 786-0 renal is above 100 µM; in the test on CAKI-1 renal it was 32.9 µM; in the test on HCC-2998 colon, 18 µM; in the test with HL-60(TB) leukemia it was above 100 µM; in the test on HOP-92 NSCLC, 14.4 µM; in the test with NCI-H23 lung, 16.1 µM. In addition, the values for the TGI with RXF 393 renal, in the test with TK-10 renal and in the test on UO-31 renal were 19.5 µM, 7.05 µM and 9.71 µM, respectively.
For the compound `CCCCNC(=O)OCC(COc1ccccc1OC)OC(=O)NCCCC` (centres undefined), the TGI in the test with 786-0 renal, with CAKI-1 renal, in the test on HCC-2998 colon, with HL-60(TB) leukemia, in the test on NCI-H23 lung and with RXF 393 renal was above 100 µM in each case. Further, the TGI in the test on TK-10 renal and in the test on UO-31 renal was above 100 µM in each case.
Take `CCOC(=O)C12CCSC1C1(C#N)C(C#N)=CC2(N=P(c2ccccc2)(c2ccccc2)c2ccccc2)n2c(=O)n(-c3ccccc3)c(=O)n21` (centres undefined): the TGI with 786-0 renal was above 100 µM; in the test with CAKI-1 renal, above 100 µM; in the test with HCC-2998 colon, above 100 µM; in the test on HL-60(TB) leukemia it was 71.5 µM; in the test on HOP-92 NSCLC it was 60.9 µM; in the test with NCI-H23 lung it was above 100 µM. Also, the figures for the TGI in the test with RXF 393 renal, in the test with TK-10 renal and with UO-31 renal were above 100 µM, above 100 µM and 77.2 µM, respectively.
